The values below come from patent US20240197729A1, “ALK-5 Inhibitors and Uses Thereof” (Sumitomo Pharma Oncology, Inc., priority 2021, published 2024).

In one experiment the target is T1, ALK5 (Homo sapiens, UniProt P36897).
T1 sequence (P36897 34-503): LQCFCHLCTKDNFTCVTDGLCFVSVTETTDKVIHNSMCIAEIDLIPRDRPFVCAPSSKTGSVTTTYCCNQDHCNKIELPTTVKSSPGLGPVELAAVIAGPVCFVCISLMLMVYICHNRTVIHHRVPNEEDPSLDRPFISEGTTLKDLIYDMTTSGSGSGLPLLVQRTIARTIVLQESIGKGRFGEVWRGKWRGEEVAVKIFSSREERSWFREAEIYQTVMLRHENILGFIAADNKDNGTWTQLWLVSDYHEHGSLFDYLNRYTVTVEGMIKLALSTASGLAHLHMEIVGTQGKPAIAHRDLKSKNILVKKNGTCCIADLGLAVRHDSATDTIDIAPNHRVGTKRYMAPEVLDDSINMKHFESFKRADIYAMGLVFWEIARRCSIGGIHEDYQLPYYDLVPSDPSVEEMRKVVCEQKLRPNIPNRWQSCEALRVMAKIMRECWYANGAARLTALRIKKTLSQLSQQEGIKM
Put plainly: LanthaScreen Eu Kinase Binding Assay, ALK5. The note with it: 10-point titration, read-out: Kinase Inhibition: ALK5 IC50 (Lantha). On the procedure: Selected compounds of the present disclosure were assayed for inhibitory activity against ALK5 and ALK2. Activity determinations and selectivity were conducted by Thermo Fisher Scientific SelectScreen™ Biochemical Kinase Profiling Service using their LanthaScreen™ Eu Kinase Binding Assay Screening.
Binding of an Alexa Fluor™ conjugate or “tracer” to a kinase is detected by addition of a Eu-labeled anti-tag antibody. Binding of the tracer and antibody to a kinase results in a high degree of FRET, whereas displacement of the tracer with a kinase inhibitor results in a loss of FRET. This assay is carried out by mixing the compound tested with the reagents and reading; no development step is required.
Life Technologies' Kinase Tracers are based on ATP-competitive kinase inhibitors, making them suitable for detection of any compounds that bind to the ATP site. Inhibitors that bind the ATP site include both Type I kinase inhibitors, which bind solely to the ATP site, and Type II inhibitors (e.g., Gleevec®/Imatinib, Sorafenib, BIRB-796), which bind to both the ATP site and a second site often referred to as the allosteric site.
The test compounds were screened in 1% DMSO (final) in the well. For 10-point titrations, 3-fold serial dilutions were conducted from the starting concentration (see Table 2 below).
All Kinase/Antibody Mixtures were diluted to a 2× working concentration in the specified kinase buffer. The 4× AlexaFluor labeled Tracer was prepared in Kinase Buffer.
• Bar-coded, low volume, white, 384-well plate (Greiner Cat. #784207) • 1. 160 nL—100× Test Compound in 100% DMSO • 2. 3.84 μL—Kinase Buffer • 3. 8.0 μL—2× Kinase/Antibody Mixture • 4. 4.0 μL—4× Tracer • 5. 30-second plate shake • 6. 60-minute incubation at room temperature • 7. Read on fluorescence plate reader and analysis of the data
The following controls were made for each individual kinase and were located on the same plate as the kinase:
100% Displacement Control: The minimum Emission Ratio was established by the 100% Displacement Control wells, which contained the highest concentration of the known inhibitor used in that assay.
Known Inhibitor: A known inhibitor control standard curve, 10-point titration, was run for each individual kinase on the same plate as the kinase to ensure the inhibitor was displaced within an expected IC50 range previously determined.
The following equations were used for each set of data points: […]
Data generated were plotted using the graphing software XLfit from IDBS. The dose response curve was curve fit to model number 205.
(In general: Time-resolved FRET reads energy transfer from a long-lived donor to a nearby acceptor.)

In experiment [1] the test system is BMP-6/ALK2/Hepcidin pathway. Put plainly: ALK2 off-target assay, hepcidin mRNA in HepG2 hepatocytes. It counts as cell-based, human. The note with it: Homo sapiens; HepG2, 40 ng/ml BMP-6, 3 h; read-out: IC50, hepcidin mRNA expression. The procedure:
In this study, LDN214117 (an ALK2 inhibitor available from Selleck Chemicals S7627) was included as a positive control, and vactosertib (an ALK5 inhibitor available from MedChem Express HY-19928) was included as a negative control.
HepG2 human hepatocytes (ATCC HB-8065) were seeded in EMEM (ATCC30-2003)+10% FBS in 96-well plate and allowed to grow overnight at 5% CO2 at 37° C. The next day, cells were pre-treated with selected compounds (Compound 01, 04 or 05) or one of the control compounds at various concentrations, or with vehicle (DMSO) for one hour. Cells were then stimulated with recombinant human BMP-6 (R&D Systems 507-BP-020) at a final concentration of 40 ng/ml, in the presence of test compound or DMSO for three hours. A no-BMP-6 stimulation condition was included for baseline hepcidin level measurement.
Hepcidin mRNA expression was measured by real-time RT-PCR with Cells-to-CT 1-Step TaqMan Kit (ThermoFisher A25603) following manufacturer's instructions. GAPDH levels were measured, and served as a normalization control. Hepcidin primer: TaqMan HAMP-FAM/MGB 20×(ThermoFisher 4331182); GAPDH primer: TaqMan GAPDH-VIC/MGB 20×(ThermoFisher 4326317E). Delta-delta Ct method was used to obtain relative Hepcidin expression.
The selected compounds and control compounds LDN214117 and vactosertib were tested at drug concentrations of 20 micromolar to 1.22 nanomolar at 4-fold serial dilution. All wells contained the same DMSO concentrations. IC50 values were calculated using nonlinear regression model with GraphPad Prism software. The results of the ALK-2 off-target assay are reported in Table 3B, where “++” indicates 0.1 μM<IC50≤1 μM and “+++” indicates […].

A further experiment deals with JAK signaling. Put plainly: JAK selectivity assay, HEK blue IL-12 reporter. It counts as cell-based. The note with it: HEK-Blue, 24 h, 12.5 ng/ml IL-12, 24 h. On the procedure: The cells were purchased from Invivogen (Catalog Nr: hkb-il12) and maintained according to vendor instructions. On the day of the experiment, cells were harvested by repeated tapping of the flask to shake loose the cells attached to the bottom of the flask. Then, cells were harvested, washed and resuspended in DMEM media supplemented with 10% fetal calf serum. 30 Microliters of cell suspension was seeded into a 384-well tissue culture-coated plate containing approximately 10,000 total cells. […] Using the ECHO “Dose Response” software, the test compound was added in duplicate wells with a 3-fold dilution curve. DMSO was back-filled to normalize the DMSO across all wells. […] After 30 minutes of incubation at room temperature, the optical density was measured at 620 nanometer using the Perkin Elmer Envision plate reader. A color change can be detected at this wavelength when secreted alkaline phosphatase, which is triggered by IL-12 signaling, is present in the supernatant. […]

As usually defined, the IC50 is the concentration at which inhibition is half-maximal. For `Cc1nn(CC(F)(F)F)cc1Nc1cc(Nc2cnnc3c(C)cccc23)ccn1` [Compound 01, N2-[3-methyl-1-(2,2,2-trifluoroethyl)-1H-pyrazol-4-yl]-N4-(8-methylcinnolin-4-yl)pyridine-2,4-diamine], the values for the IC50 (on ALK5; in experiment [1]; in the experiment on JAK signaling) were no more than 0.002 µM, no less than 1 µM and 3.8 µM, respectively.
With `Cc1cccc2c(Nc3ccnc(Nc4ccc(N5CCOCC5)cc4)c3)cnnc12` [Compound 05, N4-(8-methylcinnolin-4-yl)-N2-[4-(morpholin-4-yl)phenyl]pyridine-2,4-diamine], the IC50 lay in the range of 0.002 to 0.005 µM at ALK5 and 0.1 to 1 µM in experiment [1].
As to `Cc1cccc(-c2[nH]c(CNc3ccccc3F)nc2-c2ccc3ncnn3c2)n1` [Vactosertib, vactosertib, reference compound], the IC50 in experiment [1] is no less than 1 µM; in the experiment on JAK signaling, 18.5 µM.
Regarding `Clc1cccc2c(Nc3ccnc(Nc4cccc(N5CCOCC5)c4)c3)cnnc12` [Compound 04, N4-(8-chlorocinnolin-4-yl)-N2-[3-(morpholin-4-yl)phenyl]pyridine-2,4-diamine], the values for the IC50 (on ALK5; in experiment [1]; with JAK signaling) were 0.002 to 0.005 µM, 0.1 to 1 µM and 3.7 µM, respectively.
